Experiments:
Format in all cases: biochemical
Ret = target: T1, Ret (Homo sapiens, UniProt P07949); experiment: AlphaScreen kinase assay, Ret; details: read-out: IC50, activity toward kinase Ret
T1 construct: P1378.pET-SF BI-PTP RET H661-R1012 HIS; made in house
T1 sequence (P07949 with tags, fused parts or gaps): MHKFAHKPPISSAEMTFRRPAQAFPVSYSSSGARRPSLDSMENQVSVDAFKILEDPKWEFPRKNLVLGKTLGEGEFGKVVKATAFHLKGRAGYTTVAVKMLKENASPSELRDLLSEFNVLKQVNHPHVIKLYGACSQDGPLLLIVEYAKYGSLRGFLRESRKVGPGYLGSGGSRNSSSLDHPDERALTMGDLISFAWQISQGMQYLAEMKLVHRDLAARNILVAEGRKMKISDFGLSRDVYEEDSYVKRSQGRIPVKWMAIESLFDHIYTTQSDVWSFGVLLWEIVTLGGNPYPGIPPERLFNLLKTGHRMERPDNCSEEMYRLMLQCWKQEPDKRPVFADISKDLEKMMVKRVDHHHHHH

B-Raf V600E = target: T2, B-Raf V600E (Homo sapiens, UniProt P15056, V600E); experiment: AlphaScreen kinase assay, B-Raf V600E; details: read-out: IC50, activity toward kinase B-Raf V600E
T2 construct: P4254. pFastBacBD-CDC37 BRAF D437-K722-X, V600E; His6 with pFastBac HT leader (TEV site) (N); made in house; host or cells: Sf9 (baculovirus; chaperone CDC37 co-expressed)

FGFR1 = target: T3, FGFR1 (Homo sapiens, UniProt P11362, C488A/C584S); experiment: AlphaScreen kinase assay, FGFR1; details: read-out: IC50, activity toward kinase FGFR
T3 construct: P1351.pET N6 BI-PTP FGFR A458-E765-X C488A, C584S; made in house; host or cells: E. coli (PTP1B co-expressed)

B-Raf = target: T4, B-Raf (Homo sapiens, UniProt P15056); experiment: AlphaScreen kinase assay, B-Raf; details: read-out: IC50, activity toward kinase B-Raf
T4 construct: purchased Upstate Biotechnology

Kit = target: T5, Kit (Homo sapiens, UniProt P10721); experiment: AlphaScreen kinase assay, Kit; details: read-out: IC50, activity toward kinase Kit
T5 construct: P1332.N6 BI PTP KIT M552-K948-X COD; His6 (N); made in house; host or cells: E. coli (PTP1B co-expressed)

Fms = target: T6, Fms (Homo sapiens, UniProt P07333); experiment: AlphaScreen kinase assay, Fms; details: read-out: IC50, activity toward kinase Fms
T6 construct: purchased Upstate Biotechnology
T6 sequence (P07333 20-972): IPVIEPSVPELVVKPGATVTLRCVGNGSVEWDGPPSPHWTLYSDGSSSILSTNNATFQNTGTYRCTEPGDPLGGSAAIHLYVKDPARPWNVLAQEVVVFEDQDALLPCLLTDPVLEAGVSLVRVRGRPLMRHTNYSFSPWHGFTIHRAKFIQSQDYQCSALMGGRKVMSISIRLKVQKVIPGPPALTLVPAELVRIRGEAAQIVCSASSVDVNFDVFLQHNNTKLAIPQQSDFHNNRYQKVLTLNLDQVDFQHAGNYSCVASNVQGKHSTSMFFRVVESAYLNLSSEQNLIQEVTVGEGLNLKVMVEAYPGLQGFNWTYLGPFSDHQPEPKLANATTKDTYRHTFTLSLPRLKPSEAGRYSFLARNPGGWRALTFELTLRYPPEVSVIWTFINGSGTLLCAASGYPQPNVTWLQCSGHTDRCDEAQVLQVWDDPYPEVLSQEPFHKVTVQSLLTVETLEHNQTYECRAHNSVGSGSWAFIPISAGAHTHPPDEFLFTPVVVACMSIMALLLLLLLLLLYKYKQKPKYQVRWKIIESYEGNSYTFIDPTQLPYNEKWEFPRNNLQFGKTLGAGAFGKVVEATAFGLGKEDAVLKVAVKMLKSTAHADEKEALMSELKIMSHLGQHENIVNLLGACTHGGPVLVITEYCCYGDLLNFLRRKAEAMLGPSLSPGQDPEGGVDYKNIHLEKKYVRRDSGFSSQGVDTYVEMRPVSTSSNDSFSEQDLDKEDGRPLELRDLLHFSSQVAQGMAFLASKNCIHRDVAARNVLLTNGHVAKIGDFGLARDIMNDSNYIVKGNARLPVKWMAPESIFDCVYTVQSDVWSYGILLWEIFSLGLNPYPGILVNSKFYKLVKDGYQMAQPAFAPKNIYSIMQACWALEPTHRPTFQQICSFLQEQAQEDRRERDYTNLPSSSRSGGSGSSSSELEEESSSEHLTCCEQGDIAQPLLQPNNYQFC

T5 sequence (P10721 with tags, fused parts or gaps): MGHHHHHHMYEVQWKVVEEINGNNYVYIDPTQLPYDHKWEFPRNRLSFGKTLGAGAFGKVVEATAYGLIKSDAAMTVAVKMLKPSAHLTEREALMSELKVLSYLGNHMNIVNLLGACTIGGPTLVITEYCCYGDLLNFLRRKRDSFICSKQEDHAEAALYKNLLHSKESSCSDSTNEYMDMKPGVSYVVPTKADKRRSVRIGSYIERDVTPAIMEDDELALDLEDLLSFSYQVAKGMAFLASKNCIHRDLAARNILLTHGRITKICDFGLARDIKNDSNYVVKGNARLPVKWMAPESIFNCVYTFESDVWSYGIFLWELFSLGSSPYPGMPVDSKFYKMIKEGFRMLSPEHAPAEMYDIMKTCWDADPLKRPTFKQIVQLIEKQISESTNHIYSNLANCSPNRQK
T2 sequence (P15056 with tags, fused parts or gaps V600E): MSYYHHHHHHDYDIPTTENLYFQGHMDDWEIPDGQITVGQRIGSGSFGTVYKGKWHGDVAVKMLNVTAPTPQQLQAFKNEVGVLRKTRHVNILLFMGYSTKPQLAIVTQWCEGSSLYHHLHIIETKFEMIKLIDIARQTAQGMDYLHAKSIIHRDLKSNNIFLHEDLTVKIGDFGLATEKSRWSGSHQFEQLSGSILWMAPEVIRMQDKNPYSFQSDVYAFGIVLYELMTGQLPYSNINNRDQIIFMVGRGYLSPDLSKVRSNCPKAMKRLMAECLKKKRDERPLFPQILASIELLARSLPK
T4 sequence (P15056 whole entry): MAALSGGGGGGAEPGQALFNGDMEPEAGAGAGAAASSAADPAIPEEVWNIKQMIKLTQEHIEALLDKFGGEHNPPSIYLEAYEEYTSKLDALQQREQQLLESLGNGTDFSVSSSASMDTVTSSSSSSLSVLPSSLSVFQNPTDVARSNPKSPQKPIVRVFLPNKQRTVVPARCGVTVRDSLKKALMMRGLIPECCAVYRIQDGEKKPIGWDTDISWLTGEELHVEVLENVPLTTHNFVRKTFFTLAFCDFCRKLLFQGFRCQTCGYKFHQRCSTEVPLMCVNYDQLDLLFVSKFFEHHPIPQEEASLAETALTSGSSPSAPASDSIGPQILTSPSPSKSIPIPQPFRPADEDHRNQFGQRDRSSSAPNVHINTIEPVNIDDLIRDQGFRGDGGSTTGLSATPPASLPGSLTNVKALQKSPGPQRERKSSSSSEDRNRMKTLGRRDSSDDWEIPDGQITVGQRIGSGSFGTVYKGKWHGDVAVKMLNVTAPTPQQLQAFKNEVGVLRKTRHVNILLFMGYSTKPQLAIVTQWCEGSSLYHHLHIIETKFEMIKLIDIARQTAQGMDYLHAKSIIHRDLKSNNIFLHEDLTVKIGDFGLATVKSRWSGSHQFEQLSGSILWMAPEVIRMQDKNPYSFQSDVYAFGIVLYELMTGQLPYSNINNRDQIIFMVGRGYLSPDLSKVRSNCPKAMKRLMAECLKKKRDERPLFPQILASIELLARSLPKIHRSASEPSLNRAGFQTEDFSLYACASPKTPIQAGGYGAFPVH
T3 sequence (P11362 458-765 C488A/C584S): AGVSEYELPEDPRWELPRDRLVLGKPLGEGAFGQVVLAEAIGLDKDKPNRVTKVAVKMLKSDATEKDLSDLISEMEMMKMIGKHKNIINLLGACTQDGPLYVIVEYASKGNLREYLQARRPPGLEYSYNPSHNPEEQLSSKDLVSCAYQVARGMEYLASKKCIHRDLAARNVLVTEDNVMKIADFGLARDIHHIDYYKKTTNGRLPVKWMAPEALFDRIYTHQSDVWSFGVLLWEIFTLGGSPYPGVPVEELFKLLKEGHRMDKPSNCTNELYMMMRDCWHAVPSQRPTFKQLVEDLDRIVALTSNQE

Structure (SMILES)	IC50 (Ret) [µM]	IC50 (B-Raf V600E) [µM]	also measured
Cc1cc(C(=O)c2c[nH]c3nccc(-c4ccc(Cl)cc4)c23)no1 [Compound P-1178]	≤ 10		
Cc1cc(C(=O)c2c[nH]c3nccc(-c4cccc(NS(C)(=O)=O)c4)c23)no1 [Compound P-1025]	≤ 10	≤ 10	
Cc1cc(C(=O)c2c[nH]c3ncc(-c4cccc(/C=C/C(=O)O)c4)cc23)no1 [Compound P-1072]	≤ 10		
Cc1cc(C(=O)c2c[nH]c3nccc(-c4cccc(S(C)(=O)=O)c4)c23)no1 [Compound P-1031]	≤ 10	≤ 10	
Fc1cnc(F)c(F)c1Cc1c[nH]c2ncc(-c3ccsc3)cc12 [Compound P-0596]	≤ 10		
O=C(c1cc(F)ccc1F)c1c[nH]c2ncc(-c3cccnc3)cc12 [Compound P-1111]	≤ 10		IC50 (FGFR1): ≤ 10 µM
COc1cccc(C(=O)c2c[nH]c3nccc(-c4cccnc4)c23)c1 [Compound P-1117]	≤ 10	≤ 10	
NC(=O)c1ccc(-c2cnc3[nH]cc(C(=O)c4cccc(Cl)c4Cl)c3c2)cc1 [Compound P-0977]	≤ 10		IC50 (FGFR1): ≤ 10 µM
COc1cccc(C(=O)c2c[nH]c3nccc(-c4ccc(Cl)cc4)c23)c1 [Compound P-1191]	≤ 10		
Cc1cc(C(=O)c2c[nH]c3nccc(-c4cccnc4)c23)no1 [Compound P-1029]	≤ 10	≤ 10	
O=C(c1cccc(Cl)c1Cl)c1c[nH]c2nccc(-c3ccc(Cl)cc3)c12 [Compound P-1130]	≤ 10		
COc1cccc(C(=O)c2c[nH]c3nccc(-c4cccc(S(C)(=O)=O)c4)c23)c1 [Compound P-1125]	≤ 10		IC50 (FGFR1): ≤ 10 µM
Cc1cc(C(=O)c2c[nH]c3nccc(-c4ccc(Cl)cc4)c23)n(C)n1 [Compound P-1196]	≤ 10		
Cc1ccccc1C(=O)c1c[nH]c2nccc(-c3ccc(Cl)cc3)c12 [Compound P-1201]	≤ 10		
Cc1cc(C(=O)c2c[nH]c3nccc(-c4ccsc4)c23)no1 [Compound P-1026]	≤ 10	≤ 10	
COc1ccc(-c2ccnc3[nH]cc(C(=O)c4cccc(O)c4)c23)cn1 [Compound P-0520]	≤ 10		IC50 (FGFR1): ≤ 10 µM
COc1ccc(-c2ccnc3[nH]cc(C(=O)c4ccccc4F)c23)cn1 [Compound P-0245]	≤ 10		

Structure (SMILES)	IC50 (Ret) [µM]	IC50 (B-Raf V600E) [µM]	also measured
Cc1ccc(F)cc1C(=O)c1c[nH]c2nccc(-c3cccnc3)c12 [Compound P-1121]	≤ 10		
COc1ccc(-c2ccnc3[nH]cc(C(=O)c4ccccc4C)c23)cn1 [Compound P-0536]	≤ 10		
Cc1cc(C(=O)c2c[nH]c3nccc(-c4cccc(C(N)=O)c4)c23)no1 [Compound P-1036]	≤ 10		
Cc1cc(C(=O)c2c[nH]c3ncc(Br)cc23)no1 [Compound P-0608]	≤ 10		
COc1cccc(C(=O)c2c[nH]c3nccc(-c4cccc(NS(C)(=O)=O)c4)c23)c1 [Compound P-1185]	≤ 10		
CS(=O)(=O)Nc1cccc(-c2ccnc3[nH]cc(C(=O)c4ccc(Cl)cc4)c23)c1 [Compound P-0678]	≤ 10		
Fc1ccc(-c2c(CNCc3ccccc3)[nH]c3ncccc23)cc1 [Compound P-0517]	≤ 10		
COc1ccc(-c2ccnc3[nH]cc(C(=O)c4cc(C)on4)c23)cn1 [Compound P-1113]	≤ 10	≤ 10	
O=S(=O)(NCc1c[nH]c2ncccc12)C(F)(F)F [Compound P-0412]	≤ 10		
O=C(c1cc(F)ccc1F)c1c[nH]c2nccc(-c3ccc(Cl)cc3)c12 [Compound P-0638]	≤ 10	≤ 10	
Cc1ccc(F)cc1C(=O)c1c[nH]c2nccc(-c3cccc(S(C)(=O)=O)c3)c12 [Compound P-1129]	≤ 10		
Cn1cc(-c2cnc3[nH]cc(C(=O)c4c(F)ccc(NS(=O)(=O)c5ccc(C(F)(F)F)cc5)c4F)c3c2)cn1 [Compound P-1996, N-{2,4-Difluoro-3-[5-(1-methyl-1H-pyrazol-4-yl)-1H-pyrrolo[2,3-b]pyridine-3-carbonyl]-phenyl}-4-trifluoromethyl-benzenesulfonamide]		≤ 10	IC50 (B-Raf): ≤ 10 µM; IC50 (Kit): ≤ 10 µM; IC50 (Fms): ≤ 10 µM
Cc1c(Cl)cc(F)cc1S(=O)(=O)NCc1cc2cccnc2[nH]1 [Compound P-0533]	≤ 10		
Cc1ccc(F)cc1C(=O)c1c[nH]c2nccc(-c3ccc(Cl)cc3)c12 [Compound P-1133]	≤ 10		
O=C(c1ccccc1)c1c[nH]c2ncc(-c3ccsc3)cc12 [Compound P-1193]	≤ 10		
N#Cc1ccc(S(=O)(=O)Nc2ccc(F)c(C(=O)c3c[nH]c4ncc(Cl)cc34)c2F)cc1 [Compound P-1822, N-[3-(5-Chloro-1H-pyrrolo[2,3-b]pyridine-3-carbonyl)-2,4-difluoro-phenyl]-4-cyano-benzenesulfonamide]		≤ 10	IC50 (B-Raf): ≤ 10 µM; IC50 (Kit): ≤ 10 µM; IC50 (Fms): ≤ 10 µM

Second part, led by results:

IC50 (Ret) [µM]	IC50 (B-Raf V600E) [µM]	Structure (SMILES)	also measured
≤ 10		Cc1cc(C(=O)c2c[nH]c3ncc(-c4cccc(/C=C/C(=O)O)c4)cc23)nn1C [Compound P-1137]	
≤ 10		Cc1ccccc1C(=O)c1c[nH]c2nccc(-c3cccc(S(C)(=O)=O)c3)c12 [Compound P-1200]	
≤ 10		Cc1ccc(F)cc1C(=O)c1c[nH]c2nccc(-c3cccc(N)c3)c12 [Compound P-1135]	
≤ 10	≤ 10	Cc1ccc(F)cc1C(=O)c1c[nH]c2nccc(-c3ccc(C(N)=O)cc3)c12 [Compound P-1024]	
≤ 10		CS(=O)(=O)Nc1ccc(F)c(C(=O)c2c[nH]c3ncccc23)c1 [Compound P-0881]	
≤ 10		O=S(=O)(NCc1c[nH]c2ncccc12)c1cc(Br)cc(Cl)n1 [Compound P-0726]	
≤ 10	≤ 10	O=C(c1ccccc1F)c1c[nH]c2nccc(-c3ccc(Cl)cc3)c12 [Compound P-0472]	
≤ 10		CS(=O)(=O)c1cccc(-c2ccnc3[nH]cc(C(=O)c4ccc(Cl)cc4)c23)c1 [Compound P-1198]	
≤ 10		Cc1ccc(F)cc1C(=O)c1c[nH]c2nccc(-c3cccc(/C=C/C(=O)O)c3)c12 [Compound P-0985]	
≤ 10	≤ 10	O=C(c1cccc(Cl)c1Cl)c1c[nH]c2nccc(-c3ccsc3)c12 [Compound P-0347]	
	≤ 10	COc1ccc(F)c(C(=O)c2c[nH]c3ncc(Br)cc23)c1 [Compound P-0284]	IC50 (FGFR1): ≤ 10 µM; IC50 (B-Raf): ≤ 10 µM; IC50 (Kit): ≤ 10 µM; IC50 (Fms): ≤ 10 µM
≤ 10		[O-][S+](c1ccccc1)c1c[nH]c2ncc(Br)cc12 (stereo not shown) [Compound P-1097]	
≤ 10		COc1cccc(C(=O)c2c[nH]c3nccc(-c4ccsc4)c23)c1 [Compound P-1188]	IC50 (FGFR1): ≤ 10 µM
≤ 10		CS(=O)(=O)c1cccc(-c2ccnc3[nH]cc(C(=O)c4cccc(Cl)c4Cl)c23)c1 [Compound P-1134]	
≤ 10		COc1ccc(-c2ccnc3[nH]cc(C(=O)c4cc(F)ccc4C)c23)cn1 [Compound P-1192]	
≤ 10		Cc1ccc(F)cc1C(=O)c1c[nH]c2nccc(-c3ccsc3)c12 [Compound P-1189]	
≤ 10	≤ 10	CC(=O)Nc1cccc(-c2ccnc3[nH]cc(C(=O)c4cc(C)on4)c23)c1 [Compound P-1085]	
≤ 10		Cc1nc(-c2ccc(S(=O)(=O)NCc3c[nH]c4ncccc34)s2)cs1 [Compound P-0735]	
≤ 10	≤ 10	Cc1cc(C(=O)c2c[nH]c3nccc(-c4ccc(C(N)=O)cc4)c23)no1 [Compound P-1007]	
≤ 10		CC(=O)Nc1cccc(-c2ccnc3[nH]cc(C(=O)c4cc(F)ccc4C)c23)c1 [Compound P-1126]	
≤ 10		CC(=O)Nc1cccc(-c2ccnc3[nH]cc(C(=O)c4ccc(Cl)cc4)c23)c1 [Compound P-1075]	
	≤ 10	Cc1cccc(NC(=O)Nc2cccc(C(=O)c3c[nH]c4ncccc34)c2)c1 [Compound P-1719, 1-[3-(1H-Pyrrolo[2,3-b]pyridine-3-carbonyl)-phenyl]-3-m-tolyl-urea]	IC50 (B-Raf): ≤ 10 µM; IC50 (Kit): ≤ 10 µM; IC50 (Fms): ≤ 10 µM
	≤ 10	O=C(c1c(F)ccc(NS(=O)(=O)c2ccsc2)c1F)c1c[nH]c2ncc(Br)cc12 [Compound P-1798, Thiophene-3-sulfonic acid [3-(5-bromo-1H-pyrrolo[2,3-b]pyridine-3-carbonyl)-2,4-difluoro-phenyl]-amide]	IC50 (B-Raf): ≤ 10 µM; IC50 (Kit): ≤ 10 µM; IC50 (Fms): ≤ 10 µM
≤ 10	≤ 10	CS(=O)(=O)Nc1cccc(-c2ccnc3[nH]cc(C(=O)c4cccc(Cl)c4Cl)c23)c1 [Compound P-0231]	
